Measurements published in ChEMBL document CHEMBL1201862, “PubChem BioAssay data set” (2004).
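A five-concentration, 48-hour dose response in 96-well plates underlies each endpoint, interpolated linearly between surrounding concentrations. Here, GI50 denotes the concentration required for 50% inhibition of growth.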 The source made the active and inactive calls. No stated cut-off is given here; in the data, active = GI50 up to about 1.1 µM and inactive = higher.

How the values were obtained:
Test in all cases: growth of human tumour cells (NCI), 48 h
DU-145 = test system: DU-145
NCI-H522 = test system: NCI-H522
OVCAR-8 = test system: OVCAR-8
SK-MEL-5 = test system: SK-MEL-5
SNB-75 = test system: SNB-75
SK-OV-3 = test system: SK-OV-3
OVCAR-3 = test system: OVCAR-3
Hs-578T = test system: Hs-578T
CCRF-CEM = test system: CCRF-CEM
NCI-H23 = test system: NCI-H23
SW-620 = test system: SW-620
OVCAR-4 = test system: OVCAR-4
UO-31 = test system: UO-31
Malme-3M = test system: Malme-3M
TK-10 = test system: TK-10
SF-539 = test system: SF-539
EKVX = test system: EKVX
SK-MEL-2 = test system: SK-MEL-2
HOP-62 = test system: HOP-62
NCI/ADR-RES = test system: NCI/ADR-RES

| SMILES | GI50 (DU-145) | GI50 (NCI-H522) | GI50 (OVCAR-8) | GI50 (SK-MEL-5) | GI50 (SNB-75) | GI50 (SK-OV-3) | GI50 (OVCAR-3) | GI50 (Hs-578T) | GI50 (CCRF-CEM) | GI50 (NCI-H23) | GI50 (SW-620) | GI50 (OVCAR-4) | GI50 (UO-31) | GI50 (Malme-3M) | GI50 (TK-10) | GI50 (SF-539) | GI50 (EKVX) | GI50 (SK-MEL-2) | GI50 (HOP-62) | GI50 (NCI/ADR-RES) |
| --- | --- | --- | --- | --- | --- | --- | --- | --- | --- | --- | --- | --- | --- | --- | --- | --- | --- | --- | --- | --- |
| COc1ccc(-c2c(C#N)c(=O)nc(SC)n2C2OCC(OC(C)=O)C(OC(C)=O)C2OC(C)=O)cc1 (stereo not given) | > 100 µM (inactive) | 74 µM (inactive) | 90.6 µM (inactive) | 45 µM (inactive) | 95.9 µM (inactive) | > 100 µM (inactive) | > 100 µM (inactive) | 31.6 µM (inactive) | 29 µM (inactive) | > 100 µM (inactive) | 64.3 µM (inactive) | > 100 µM (inactive) | 38.6 µM (inactive) | > 100 µM (inactive) | > 100 µM (inactive) | > 100 µM (inactive) | 87.5 µM (inactive) | > 100 µM (inactive) | > 100 µM (inactive) | 91.2 µM (inactive) |
| COCCOC1=C(Cl)C(=O)c2c(O)ccc(O)c2C1=O | 5.26 µM (inactive) | 0.681 µM (active) | 1.63 µM (inactive) | 1.95 µM (inactive) | 5.55 µM (inactive) | 16.8 µM (inactive) | 1.09 µM (active) | 3.24 µM (inactive) | 0.111 µM (active) | 2.25 µM (inactive) | 0.444 µM (active) | 1.94 µM (inactive) | 1.71 µM (inactive) | 0.955 µM (active) | 1.47 µM (inactive) | 2.16 µM (inactive) | 4.97 µM (inactive) | 5.98 µM (inactive) | 3.33 µM (inactive) | 2.84 µM (inactive) |
| C[C@H]1C/C=C/[C@H]2[C@@H]3O[C@]3(C)[C@@H](C)[C@H]3[C@H](Cc4ccccc4)NC(=O)[C@]32OC(=O)O/C=C/[C@@](C)(O)C1=O [CYTOCHALASIN E] | < 0.01 µM (active) | 0.0431 µM (active) | 23.6 µM (inactive) | 0.0211 µM (active) | 0.0102 µM (active) | 0.0292 µM (active) | 0.0975 µM (active) | 0.0171 µM (active) | 0.021 µM (active) | 0.197 µM (active) | 21.8 µM (inactive) | 0.0262 µM (active) | 0.0199 µM (active) | 0.0251 µM (active) | < 0.01 µM (active) | 0.0169 µM (active) | 0.075 µM (active) | 0.393 µM (active) | 0.0206 µM (active) | 5.69 µM (inactive) |
| O=C1/C(=C/c2ccc(O)c(O)c2)CCC/C1=C\c1ccc(O)c(O)c1 | 4.5 µM (inactive) | 0.729 µM (active) | 2.07 µM (inactive) | 1.67 µM (inactive) | 3.4 µM (inactive) | 7.96 µM (inactive) | 3.06 µM (inactive) | 3.18 µM (inactive) | 1.52 µM (inactive) | 2.76 µM (inactive) | 2.45 µM (inactive) | 5.38 µM (inactive) | 2 µM (inactive) | 2.46 µM (inactive) | 3.79 µM (inactive) | 2.41 µM (inactive) | 14.3 µM (inactive) | 3.42 µM (inactive) | 4.13 µM (inactive) | 4.13 µM (inactive) |
| CN(C)CCNC(=O)c1c(O)ccc2c1c1c(n2CCc2ccccc2)C(=O)c2ccccc2C1=O | 4.57 µM (inactive) | 8.67 µM (inactive) | 8.36 µM (inactive) | 2.96 µM (inactive) | 14.4 µM (inactive) | 16.4 µM (inactive) | 12.9 µM (inactive) | 9.73 µM (inactive) | 0.826 µM (active) | 14.4 µM (inactive) | 6.93 µM (inactive) | 11.6 µM (inactive) | 5.26 µM (inactive) | 3.63 µM (inactive) | 7.93 µM (inactive) | 5.37 µM (inactive) | 14.6 µM (inactive) | 5.87 µM (inactive) | 10.6 µM (inactive) | 13.5 µM (inactive) |
| COc1ccccc1/C=C1\CCC(CN(C)C)C1=O (stereo not given) | 11.8 µM (inactive) | 1.85 µM (inactive) | 5.78 µM (inactive) | 12.4 µM (inactive) | 8.49 µM (inactive) | 19.4 µM (inactive) | 5.38 µM (inactive) | 9.86 µM (inactive) | 1.5 µM (inactive) | 10.8 µM (inactive) | 2.58 µM (inactive) | 6.92 µM (inactive) | 7.74 µM (inactive) | 6.19 µM (inactive) | 5.73 µM (inactive) | 7.41 µM (inactive) | 15 µM (inactive) | 8.51 µM (inactive) | 19.5 µM (inactive) | 7.24 µM (inactive) |
| NC(=S)N1N=C(c2ccc3c(c2)CCC3)CC1c1ccccc1 (stereo not given) | 23 µM (inactive) | 6.27 µM (inactive) | 28.3 µM (inactive) | 12.8 µM (inactive) | 18.1 µM (inactive) | 28.6 µM (inactive) | 17.4 µM (inactive) | 6.12 µM (inactive) | 23.1 µM (inactive) | 25.1 µM (inactive) | 33.8 µM (inactive) | 7.18 µM (inactive) | 29.9 µM (inactive) | 22.6 µM (inactive) | 18.1 µM (inactive) | 18.3 µM (inactive) | 5.08 µM (inactive) | 13.7 µM (inactive) | 24.9 µM (inactive) | 15.6 µM (inactive) |
